From patent US10166226B2, “CGRP receptor antagonists” (Heptares Therapeutics Limited, priority 2015, dated 2019)
≈ marks a conversion by molar mass, not a printed value. Like-named read-outs stand apart in the source and are kept apart here. Values belong to the compound of their own block, whether it stands above or below them.

Key:
[1] = biological target: human CGRP receptor (Homo sapiens (Human), UniProt O60894+Q16602); assay: cAMP functional assay (HTRF) in SK-N-MC cells; assay type: cell-based; settings: read-out: pKb average (converted)
Chain of human CGRP receptor (Q16602 23-461): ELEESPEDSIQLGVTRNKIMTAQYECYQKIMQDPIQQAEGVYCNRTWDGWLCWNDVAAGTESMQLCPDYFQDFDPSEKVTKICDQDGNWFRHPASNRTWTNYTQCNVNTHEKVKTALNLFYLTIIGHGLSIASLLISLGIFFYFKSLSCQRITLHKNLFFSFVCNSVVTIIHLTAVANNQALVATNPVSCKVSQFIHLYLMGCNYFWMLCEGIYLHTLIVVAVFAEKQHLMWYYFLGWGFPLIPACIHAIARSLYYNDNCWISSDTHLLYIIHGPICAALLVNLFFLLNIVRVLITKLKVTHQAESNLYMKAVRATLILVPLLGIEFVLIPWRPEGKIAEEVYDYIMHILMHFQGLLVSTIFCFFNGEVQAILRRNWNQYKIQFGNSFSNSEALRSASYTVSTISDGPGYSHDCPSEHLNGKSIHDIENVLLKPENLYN
Chain of human CGRP receptor (O60894 27-148): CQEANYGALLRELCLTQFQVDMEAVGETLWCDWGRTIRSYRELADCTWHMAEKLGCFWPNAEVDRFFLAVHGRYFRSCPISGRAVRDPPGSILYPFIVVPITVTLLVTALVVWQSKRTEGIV
Experimental: cAMP production following receptor activation was determined using the Homogeneous Time-Resolved Fluorescence (HTRF) cAMP dynamic-2 assay (Cisbio, France). The human neuroblastoma cell line SK-N-MC endogenously expressing the human CGRP receptor was seeded at a density of 12,500 cells/well in solid walled 96 well half area plates (Costar, Catalog Number 3688, Corning Life Sciences, Germany). After 16 h incubation at 37° C. media was removed and cells were incubated at 37° C. for 30 min in serum free media containing 500 μM IBMX (Tocris, Abingdon, UK, Catalog Number 2845) and increasing concentrations of test antagonist. Following this cells were challenged with an EC80 concentration of human CGRP (0.3 nM) for a further 30 min at 37° C. and then cAMP production was determined as manufacturer's instructions before plates were read on a PheraStar fluorescence plate reader (BMG LabTech, Germany). IC50 values were derived from the inhibition curve. The pIC50 values (where pIC50=−log10 IC50) were converted to a functional pKb value using a modified Cheng-Prussoff equation where Kd=agonist EC50 and L hot=agonist challenge concentration. The pKb values of certain compounds of the invention are detailed in Table 3.

[2] = biological target: Human CGRP receptors (consisting of CRLR and RAMP1) (Homo sapiens (Human), UniProt O60894+Q16602); assay: Radioligand binding assay (3H-telcagepant displacement); settings: Sf21 cell membranes, 0.5 nM 3H-telcagepant, Ki by Cheng-Prussoff
Chain of Human CGRP receptors (consisting of CRLR and RAMP1) (Q16602 23-461): as the sequence (Q16602 23-461) above
Chain of Human CGRP receptors (consisting of CRLR and RAMP1) (O60894 27-148): as the sequence (O60894 27-148) above
Experimental: Human Calcitonin Receptor Like Receptor (CRLR) and human RAMP1 were cloned into Invitrogen's (ThermoFisher Scientific, UK) pFastBac dual expression vector. Transposition of CRLR/RAMP1 DNA was performed using Invitrogen's Bac-to-Bac Baculovirus Expression Systems. P0 baculovirus was generated by transfecting SF9 cells with bacmid DNA using Cellfectin® II transfection reagent (ThermoFisher Scientific, UK, catalog number 10362-100). Following P0 generation P1 virus was then generated ready for large scale infection and membrane preparation. Sf21 cells were grown in expression medium ESF921 (Expression Systems, USA, catalog number 96-001-01) supplemented with 10% heat-inactivated FBS and 1% Pen/Strep and were infected at a cell density of 2.5×10^6 cells/mL and an MOI of 2. Expression was carried out over 48 h in a shaking incubator set at 27° C. The cell culture was centrifuged at 2,500 rcf for 10 min at 4° C. The pellets were resuspended in cold PBS supplemented with Roche's Complete EDTA-free protease inhibitor cocktail tablets (Roche Applied Sciences, catalog number 05056489001), 1 mM PMSF and 1 mM EDTA. The resuspended cell paste was then centrifuged at 3,273 rcf for 12 min at 4° C. The supernatant was discarded and the pellet frozen at −80° C. The cell pellet from a 4 L culture was resuspended in buffer containing 50 mM Hepes pH 7.5, 150 mM NaCl, 8 Roche EDTA-free protease inhibitor cocktail tablets and 1 mM PMSF. The suspension was left stirring at rt for 1 h and then homogenised for 90 s at 9,500 rpm using a VDI 25 (VWR, USA) homogeniser. The cells were then lysed using a Microfluidizer processor M-110L Pneumatic (Microfluidics, USA). After lysis, the mixture was homogenised for 90 s at 9,500 rpm and then centrifuged at 335 rcf for 10 min. The supernatant was then further ultra-centrifuged at 42,000 rpm for 90 min. After ultra-centrifugation, the supernatant was discarded and the pellet was resuspended in 50 mL (25 mL for each 2 L culture) of buffer containing 50 mM Hepes pH 7.5, 150 mM NaCl, 3 Roche EDTA-free protease inhibitor cocktail tablets and 1 mM PMSF. The suspension was then homogenised for 90 s at 9,500 rpm. The resulting membranes were then stored at −80° C.
Human CGRP receptors (consisting of CRLR and RAMP1) expressed in insect Sf21 cell membrane homogenates were re-suspended in the binding buffer (10 mM HEPES, pH 7.4, 5 mM MgCl2, 0.2% BSA) to a final assay concentration of […]. Saturation isotherms were determined by the addition of various concentrations of ^3H-telcagepant (Ho et al, The Lancet, 2008, 372, 2115) (in a total reaction volume of 250 μL) for 60 min at room temperature. At the end of the incubation, membranes were filtered onto a unifilter, a 96-well white microplate with bonded GF/B filter pre-incubated with 0.5% PEI, with a Tomtec cell harvester and washed 5 times with distilled water. Non-specific binding (NSB) was measured in the presence of 10 nM MK-3207 hydrochloride (CAS No. 957116-20-0). Radioactivity on the filter was counted (1 min) on a microbeta counter after addition of 50 μL of scintillation fluid.

[3] = Pharmacokinetic profiling in rat; assay type: in vivo, male Sprague Dawley rats; settings: male, Sprague Dawley, plasma
Experimental: Prior to IN dosing rats were anaesthetised with an intramuscular dose of 25-30 mg/kg ketamine cocktail (ketamine, xylazine hydrochloride and acepromazine maleate in saline) and the dose is introduced over 20-30 s via a polyethylene PE-10 tube inserted approximately 5 mm into the nasal cavity of the rat.
(§1) Following dosing by the routes above blood samples were taken at several time points (typically pre-dose, 0.083, 0.25, 0.5 1, 2, 4, 8 and 24 h) via serial tail vein bleeds (rat) or cephalic or saphenous vein (monkey) from the animal and centrifuged to separate plasma for analysis by LC/MS/MS assay. WinNonlin v6.2 statistics software (Pharsight Corporation, California, USA) was used to generate pharmacokinetic parameters using the non-compartmental model.

[4] = Thermodynamic solubility profiling; assay type: physicochemical; settings: aqueous buffer, thermodynamic from solid
Experimental: A 50 mM DMSO stock solution of test compound was prepared, and from this, a working solution of 1 mM was prepared by dilution with DMSO. The UV absorbance of working solution was scanned from 220 nm to 1000 nm to identify the wavelength maxima of test compound. The 1 mM working solution was then serially diluted in DMSO to different concentrations to determine linearity/calibration curve. […] The resulting solution was then kept on a RotoSpin shaker at 50 rpm for 24 h at rt before the solution was filtered using 0.45 micron PVDF injector filters in order to remove the insoluble fraction of the compound. Subsequently, 150 uL of the filtrate is taken for quantification using a UV spectrophotometer, acquiring the optical density of standard solutions and test compound at the same wavelength maxima. From the optical density of test compound the thermodynamic solubility is calculated using the linearity/calibration curve and expressed as micromolar (μM). Solubility profiles of certain compounds of the invention are detailed in Table 6.

[5] = Pharmacokinetic profiling in cynomolgus monkey; assay type: in vivo, male Cynomolgus Monkeys; settings: male, plasma, 0.5 mg/kg, acidified saline; for clearance: cynomolgus monkey iv; for bioavailability: cynomolgus monkey sc
Experimental: as §1

[6] = PBS buffer pH 7.4, 24 h at rt, read-out: Thermodynamic solubility pH 7.4
[7] = Sodium Phosphate Buffer pH 6.0, 24 h at rt, read-out: Thermodynamic solubility pH 6

Compound: Cc1cc(C[C@@H](NC(=O)N2CCC(c3cc4ccccc4[nH]c3=O)CC2)C(=O)N2CCC(N3CCC(c4ncc[nH]4)CC3)CC2)cc2cn[nH]c12 [Example 1, N-[(2R)-1-[4-(1H-imidazol-2-yl)-1,4′-bipiperidin-1′-yl]-3-(7-methyl-1H-indazol-5-yl)-1-oxopropan-2-yl]-4-(2-oxo-1,2-dihydroquinolin-3-yl)piperidine-1-carboxamide]
- Kb [1]: 0.2 nM
- pKi average [2]: 10.3

Compound: Cc1nc[nH]c1C1CCN(C2CCN(C(=O)[C@@H](Cc3cc(C)c4[nH]ncc4c3)NC(=O)N3CCC(c4cc5ccccc5[nH]c4=O)CC3)CC2)CC1 [Example 2, N-[(2R)-1-[4-(4-methyl-1H-imidazol-5-yl)-1,4′-bipiperidin-1′-yl]-3-(7-methyl-1H-indazol-5-yl)-1-oxopropan-2-yl]-4-(2-oxo-1,2-dihydroquinolin-3-yl)piperidine-1-carboxamide]
- bioavailability ([3]; inhaled or intranasal): 25%
- bioavailability ([3]; sc): 69%
- Kb [1]: 0.316 nM
- solubility thermodynamic at 24 h [4, 6]: 18 µM (≈ 12.7 µg/mL)
- solubility thermodynamic at 24 h [4, 7]: 2040 µM (≈ 1440 µg/mL)
- clearance [5]: 24 mL/min/kg
- bioavailability [5]: 100%
- pKi average [2]: 10.1

Compound: CCOC(=O)c1nnc(C2CCN(C3CCN(C(=O)[C@@H](Cc4cc(C)c5[nH]ncc5c4)NC(=O)N4CCC(c5cc6ccccc6[nH]c5=O)CC4)CC3)CC2)[nH]1 [Example 6, ethyl 5-{1′-[(2R)-3-(7-methyl-1H-indazol-5-yl)-2-({[4-(2-oxo-1,2-dihydroquinolin-3-yl)piperidin-1-yl]carbonyl}amino)propanoyl]-1,4′-bipiperidin-4-yl}-4H-1,2,4-triazole-3-carboxylate]
- Kb [1]: 0.2 nM
- pKi average [2]: 10.2

Compound: Cc1nnc(C2CCN(C3CCN(C(=O)[C@@H](Cc4cc(C)c5[nH]ncc5c4)NC(=O)N4CCC(c5cc6ccccc6[nH]c5=O)CC4)CC3)CC2)[nH]1 [Example 8, N-{(2R)-3-(7-methyl-1H-indazol-5-yl)-1-[4-(5-methyl-4H-1,2,4-triazol-3-yl)-1,4′-bipiperidin-1′-yl]-1-oxopropan-2-yl}-4-(2-oxo-1,2-dihydroquinolin-3-yl)piperidine-1-carboxamide]
- Kb [1]: 0.316 nM
- solubility thermodynamic at 24 h [4, 6]: 359 µM (≈ 253 µg/mL)
- solubility thermodynamic at 24 h [4, 7]: 1220 µM (≈ 858 µg/mL)
- pKi average [2]: 10.0

Compound: Cc1cc(C[C@@H](NC(=O)N2CCC(c3cc4ccccc4[nH]c3=O)CC2)C(=O)N2CCC(N3CCC(c4nnc(C(=O)O)[nH]4)CC3)CC2)cc2cn[nH]c12 [Example 9, 5-{1′-[(2R)-3-(7-methyl-1H-indazol-5-yl)-2-({[4-(2-oxo-1,2-dihydroquinolin-3-yl)piperidin-1-yl]carbonyl}amino)propanoyl]-1,4′-bipiperidin-4-yl}-4H-1,2,4-triazole-3-carboxylic Acid]
- Kb [1]: 0.398 nM
- pKi average [2]: 10.3

The remaining lines, values ahead:

- Kb [1]: 0.398 nM
- solubility thermodynamic at 24 h [4, 6]: 2 µM (≈ 1.46 µg/mL)
- solubility thermodynamic at 24 h [4, 7]: 1250 µM (≈ 914 µg/mL)
- pKi average [2]: 9.8
Compound: CCCn1ccnc1C1CCN(C2CCN(C(=O)[C@@H](Cc3cc(C)c4[nH]ncc4c3)NC(=O)N3CCC(c4cc5ccccc5[nH]c4=O)CC3)CC2)CC1 [Example 3, N-{(2R)-3-(7-methyl-1H-indazol-5-yl)-1-oxo-1-[4-(1-propyl-1H-imidazol-2-yl)-1,4′-bipiperidin-1′-yl]propan-2-yl}-4-(2-oxo-1,2-dihydroquinolin-3-yl)piperidine-1-carboxamide]

- bioavailability ([3]; inhaled or intranasal): 27%
- bioavailability ([3]; sc): 82%
- Kb [1]: 0.631 nM
- solubility thermodynamic at 24 h [4, 6]: 32 µM (≈ 22.6 µg/mL)
- solubility thermodynamic at 24 h [4, 7]: 1590 µM (≈ 1120 µg/mL)
- clearance [5]: 15 mL/min/kg
- bioavailability [5]: 100%
- pKi average [2]: 10.0
Compound: Cc1cc(C[C@@H](NC(=O)N2CCC(c3cc4ccccc4[nH]c3=O)CC2)C(=O)N2CCC(N3CCC(c4nncn4C)CC3)CC2)cc2cn[nH]c12 [Example 4, N-{(2R)-3-(7-methyl-1H-indazol-5-yl)-1-[4-(4-methyl-4H-1,2,4-triazol-3-yl)-1,4′-bipiperidin-1′-yl]-1-oxopropan-2-yl}-4-(2-oxo-1,2-dihydroquinolin-3-yl)piperidine-1-carboxamide]

- Kb [1]: 0.631 nM
- solubility thermodynamic at 24 h [4, 6]: 239 µM (≈ 173 µg/mL)
- solubility thermodynamic at 24 h [4, 7]: 1540 µM (≈ 1110 µg/mL)
- pKi average [2]: 9.9
Compound: Cc1cc(C[C@@H](NC(=O)N2CCC(c3cc4ccc(F)cc4[nH]c3=O)CC2)C(=O)N2CCC(N3CCC(c4nncn4C)CC3)CC2)cc2cn[nH]c12 [Example 5, 4-(7-fluoro-2-oxo-1,2-dihydroquinolin-3-yl)-N-{(2R)-3-(7-methyl-1H-indazol-5-yl)-1-[4-(4-methyl-4H-1,2,4-triazol-3-yl)-1,4′-bipiperidin-1′-yl]-1-oxopropan-2-yl}piperidine-1-carboxamide]

- Kb [1]: 0.316 nM
- solubility thermodynamic at 24 h [4, 6]: 342 µM (≈ 236 µg/mL)
- solubility thermodynamic at 24 h [4, 7]: 785 µM (≈ 542 µg/mL)
- pKi average [2]: 9.8
Compound: Cc1cc(C[C@@H](NC(=O)N2CCC(c3cc4ccccc4[nH]c3=O)CC2)C(=O)N2CCC(N3CCC(c4nnc[nH]4)CC3)CC2)cc2cn[nH]c12 [Example 7, N-{(2R)-3-(7-methyl-1H-indazol-5-yl)-1-oxo-1-[4-(4H-1,2,4-triazol-3-yl)-1,4′-bipiperidin-1′-yl]propan-2-yl}-4-(2-oxo-1,2-dihydroquinolin-3-yl)piperidine-1-carboxamide]

- bioavailability ([3]; inhaled or intranasal): 8%
- bioavailability ([3]; sc): 48%
- solubility thermodynamic at 24 h [4, 6]: 431 µM (≈ 375 µg/mL)
- solubility thermodynamic at 24 h [4, 7]: 150 µM (≈ 130 µg/mL)
Compound: NCCCC[C@H](NC(=O)[C@@H](Cc1cc(Br)c(O)c(Br)c1)NC(=O)N1CCC(N2Cc3ccccc3NC2=O)CC1)C(=O)N1CCN(c2ccncc2)CC1 [olcegepant, reference compound]
